In patent US8481544B2, “Antibacterial compositions” (Biota Europe Limited, priority 2006, dated 2013):
Values after ≈ are worked out from the molar mass of the structure shown.

These molecules were tested on Enterococcus faecalis ATCC 29212 (assay: MIC against Enterococcus faecalis ATCC 29212). Conditions: ATCC29212; Enterococcus faecalis ATCC 29212; read-out: MICs against Enterococcus faecalis, Activity.
Assay type: cell-based
Protocol: Institute. Methods for Dilution Antimicrobial Susceptibility Tests for Bacteria That Grow Aerobically; Approved Standard—Seventh Edition. Document M7-A7. CLSI, Wayne, Pa., 2006; Clinical Laboratories and Standards Institute. Methods for Antimicrobial Susceptibility Testing of Anaerobic Bacteria; Approved Standard—Sixth Edition. Document M11-A6. CLSI, Wayne, Pa., 2004).
Compounds of this invention were tested for antimicrobial activity by susceptibility testing in liquid or on solid media. MICs for compounds against each strain were determined by the broth microdilution or agar dilution method according to the guidelines of the Clinical Laboratories and Standards Institute, formerly the National Committee for Clinical Laboratory Standards (Clinical Laboratories and Standards Institute. Methods for Dilution Antimicrobial Susceptibility Tests for Bacteria That Grow Aerobically; Approved Standard—Seventh Edition. Document M7-A7. CLSI, Wayne, Pa., 2006; Clinical Laboratories and Standards Institute. Methods for Antimicrobial Susceptibility Testing of Anaerobic Bacteria; Approved Standard—Sixth Edition. Document M11-A6. CLSI, Wayne, Pa., 2004).

MIC [µg/mL] | SMILES
< 0.25 | CCNC(=O)Nc1nc2cc(-c3cccnc3)cc(-c3ccnc(N)n3)c2s1 [Example 114, 1-[7-(2-Amino-pyrimidin-4-yl)-5-pyridin-3-yl-benzothiazol-2-yl]-3-ethyl-urea]
2 to 16 (≈ 5.28 to 42.3 µM) | CCNC(=O)Nc1nc2cc(-c3cccnc3)cc(-c3nccn3C)c2s1 [Example 162, 1-Ethyl-3-[7-(1-methyl-1H-imidazol-2-yl)-5-pyridin-3-yl-benzothiazol-2-yl]-urea]
< 0.25 | CCNC(=O)Nc1nc2cc(-c3cccnc3)cc(-c3ccc(C#N)cn3)c2s1 [Example 107, 1-[7-(5-Cyano-pyridin-2-yl)-5-pyridin-3-yl-benzothiazol-2-yl]-3-ethyl-urea]
< 0.25 | CCNC(=O)Nc1nc2cc(-c3cccnc3)cc(-c3cc(Cl)ccn3)c2s1 [Example 127, 1-[7-(4-Chloro-pyridin-2-yl)-5-pyridin-3-yl-benzothiazol-2-yl]-3-ethyl-urea]
2 to 16 (≈ 5.03 to 40.3 µM) | CCNC(=O)Nc1nc2cc(-c3cccnc3)cc(-c3csc(O)n3)c2s1 [Example 172, 1-Ethyl-3-[7-(2-hydroxy-thiazol-4-yl)-5-pyridin-3-yl-benzothiazol-2-yl]-urea]
0.25 to 1 (≈ 0.597 to 2.39 µM) | CCNC(=O)Nc1nc2cc(-c3cccnc3)cc(-c3cc(C(N)=O)ccn3)c2s1 [Example 108, 2-[2-(3-Ethyl-ureido)-5-pyridin-3-yl-benzothiazol-7-yl]-isonicotinamide]
< 0.25 | CCNC(=O)Nc1nc2cc(-c3cccnc3)cc(-c3nccc(OC)n3)c2s1 [Example 124, 1-Ethyl-3-[7-(4-methoxy-pyrimidin-2-yl)-5-pyridin-3-yl-benzothiazol-2-yl]-urea]
< 0.25 | CCNC(=O)Nc1nc2cc(-c3ccc(NC(C)=O)nc3)cc(-c3cnccn3)c2s1 [Example 134, N-{5-[2-(3-Ethyl-ureido)-7-pyrazin-2-yl-benzothiazol-5-yl]-pyridin-2-yl}-acetamide]

The next lines start with the molecule.

SMILES | MIC [µg/mL]
CCNC(=O)Nc1nc2cc(-c3cccnc3)cc(-c3cccnc3OC)c2s1 [Example 85, 1-Ethyl-3-[7-(2-methoxy-pyridin-3-yl)-5-pyridin-3-yl-benzothiazol-2-yl]-urea] | 0.25 to 1 (≈ 0.617 to 2.47 µM)
CCNC(=O)Nc1nc2cc(-c3cncc(C(=O)NCCN(C)C)c3)cc(-c3ccccn3)c2s1 [Example 64, N-(2-Dimethylamino-ethyl)-5-[2-(3-ethyl-ureido)-7-pyridin-2-yl-benzothiazol-5-yl]-nicotinamide] | 2 to 16 (≈ 4.08 to 32.7 µM)
CCNC(=O)Nc1nc2cc(-c3ccc(CCO)nc3)cc(-c3ccccn3)c2s1 [Example 58, 1-Ethyl-3-{5-[6-(2-hydroxy-ethyl)-pyridin-3-yl]-7-pyridin-2-yl-benzothiazol-2-yl}-urea] | < 0.25
CCNC(=O)Nc1nc2cc(-c3ccc(CO)nc3)cc(-c3cccnc3)c2s1 [Example 19, 1-Ethyl-3-[5-(6-hydroxymethyl-pyridin-3-yl)-7-pyridin-3-yl-benzothiazol-2-yl]-urea] | 0.25 to 1 (≈ 0.617 to 2.47 µM)
CCNC(=O)Nc1nc2cc(-c3cccnc3)cc(-c3cc[nH]n3)c2s1 [Example 82, 1-Ethyl-3-[7-(1H-pyrazol-3-yl)-5-pyridin-3-yl-benzothiazol-2-yl]-urea] | 0.25 to 1 (≈ 0.686 to 2.74 µM)
CCNC(=O)Nc1nc2cc(-c3ccc(CC(=O)NC)nc3)cc(-c3ccccn3)c2s1 [Example 70, 2-{5-[2-(3-Ethyl-ureido)-7-pyridin-2-yl-benzothiazol-5-yl]-pyridin-2-yl}-N-methyl-acetamide] | < 0.25
CCNC(=O)Nc1nc2cc(-c3ccc(OC)nc3)cc(-c3cccnc3)c2s1 [Example 29, 1-Ethyl-3-[5-(6-methoxy-pyridin-3-yl)-7-pyridin-3-yl-benzothiazol-2-yl]-urea] | 0.25 to 1 (≈ 0.617 to 2.47 µM)
CCNC(=O)Nc1nc2cc(-c3cccnc3)cc(-c3nc(C)ccc3C#N)c2s1 [Example 103, 1-[7-(3-Cyano-6-methyl-pyridin-2-yl)-5-pyridin-3-yl-benzothiazol-2-yl]-3-ethyl-urea] | < 0.25
CCNC(=O)Nc1nc2cc(-c3ccccn3)cc(-c3cnc(N)nc3)c2s1 [Example 74, 1-[7-(2-Amino-pyrimidin-5-yl)-5-pyridin-2-yl-benzothiazol-2-yl]-3-ethyl-urea] | 2 to 16 (≈ 5.11 to 40.9 µM)
